In ChEMBL document CHEMBL1201862, “PubChem BioAssay data set” (2004):
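48-hour exposure; five concentrations; linearly interpolated endpoints. The concentration for 50% growth inhibition is given as GI50.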 The source made the active and inactive calls. No stated cut-off is given here; in the data, active = GI50 up to about 1.1 µM and inactive = higher.

Key:
Assay in all cases: DTP human tumour cell line panel, 48 h
A549 = test system: A549
NCI-H460 = test system: NCI-H460
IGROV-1 = test system: IGROV-1
NCI/ADR-RES = test system: NCI/ADR-RES
MDA-MB-435 = test system: MDA-MB-435
OVCAR-3 = test system: OVCAR-3
SK-OV-3 = test system: SK-OV-3
OVCAR-4 = test system: OVCAR-4
UACC-62 = test system: UACC-62
HL-60 = test system: HL-60
SR = test system: SR
786-0 = test system: 786-0
CCRF-CEM = test system: CCRF-CEM
NCI-H522 = test system: NCI-H522
SF-268 = test system: SF-268
CAKI-1 = test system: CAKI-1
MDA-MB-231 = test system: MDA-MB-231
HOP-62 = test system: HOP-62
RXF 393 = test system: RXF 393
MDA-N = test system: MDA-N

Compound | GI50 (A549) | GI50 (NCI-H460) | GI50 (IGROV-1) | GI50 (NCI/ADR-RES) | GI50 (MDA-MB-435) | GI50 (OVCAR-3) | GI50 (SK-OV-3) | GI50 (OVCAR-4) | GI50 (UACC-62) | GI50 (HL-60) | GI50 (SR) | GI50 (786-0) | GI50 (CCRF-CEM) | GI50 (NCI-H522) | GI50 (SF-268) | GI50 (CAKI-1) | GI50 (MDA-MB-231) | GI50 (HOP-62) | GI50 (RXF 393) | GI50 (MDA-N)
Cc1cccc2c1Oc1ncccc1C2NC(=O)CN(C)C (stereo unspecified) | > 10 µM (inactive) | > 10 µM (inactive) | > 10 µM (inactive) | > 10 µM (inactive) | > 10 µM (inactive) | > 10 µM (inactive) | > 10 µM (inactive) | > 10 µM (inactive) | > 10 µM (inactive) | > 10 µM (inactive) | > 10 µM (inactive) | > 10 µM (inactive) | > 10 µM (inactive) | > 10 µM (inactive) | > 10 µM (inactive) |  |  |  |  | 
C[C@H]1CC[C@@]2(OC1)O[C@H]1C[C@H]3[C@@H]4CC[C@@H]5C[C@@H](OC6OC(CO)C(O)C(O)C6OC6OC(CO)C(O)C(O)C6O)CC[C@]5(C)[C@H]4CC[C@]3(C)[C@H]1[C@@H]2C (stereo partly specified) | 2 µM (inactive) |  | 2.3 µM (inactive) | 2.99 µM (inactive) | 2.15 µM (inactive) | 2.16 µM (inactive) | 1.69 µM (inactive) | 2.33 µM (inactive) | 2.4 µM (inactive) | 0.889 µM (active) | 2.07 µM (inactive) | 2.01 µM (inactive) | 1.58 µM (inactive) | 2.71 µM (inactive) | 2.3 µM (inactive) | 1.8 µM (inactive) | 2.09 µM (inactive) | 2.25 µM (inactive) |  | 
CC1=C(/C(C)=N/NS(=O)(=O)c2ccc(C)cc2)Sc2ccccc2N1 | > 100 µM (inactive) | > 100 µM (inactive) | > 100 µM (inactive) |  |  | 58.2 µM (inactive) | > 100 µM (inactive) | > 100 µM (inactive) | 32.9 µM (inactive) | 39.4 µM (inactive) | 59.7 µM (inactive) | > 100 µM (inactive) | 32.9 µM (inactive) | 46.7 µM (inactive) | > 100 µM (inactive) | > 100 µM (inactive) |  | > 100 µM (inactive) | > 100 µM (inactive) | 
Nc1nc(CCl)nc(N2CCOCC2)n1 | > 100 µM (inactive) | 17.7 µM (inactive) | 14.3 µM (inactive) | 29.4 µM (inactive) | 29.2 µM (inactive) | > 10 µM (inactive) | 45.6 µM (inactive) | 17.4 µM (inactive) | 15.8 µM (inactive) | 13.9 µM (inactive) | 21.3 µM (inactive) | 14 µM (inactive) | 18.6 µM (inactive) | 3.4 µM (inactive) | 33.7 µM (inactive) | 16.5 µM (inactive) | 28.9 µM (inactive) | 18.2 µM (inactive) | 36.6 µM (inactive) | 
COc1cc2c(cc1C[C@H]1[C@@H]3C[C@H]4c5c(c6ccccc6n5C)C[C@@H]([C@@H]3CO[C@]1(C)OC(C)=O)N4C)c1c(n2C)C2C[C@H]3C(C(C)=O)=COC[C@H]3[C@H](C1)N2C | > 25 µM (inactive) | 3.38 µM (inactive) | 7.24 µM (inactive) | 2.93 µM (inactive) | > 25 µM (inactive) | 2.66 µM (inactive) | 11.1 µM (inactive) | 3.8 µM (inactive) | 5.11 µM (inactive) |  | 2.64 µM (inactive) | 2.86 µM (inactive) | 2.55 µM (inactive) |  | 2.69 µM (inactive) | 2.23 µM (inactive) | 4.55 µM (inactive) | 1.56 µM (inactive) | 2.58 µM (inactive) | 
CC1C(c2ccc(F)cc2)c2cc3c(cc2OC1N1CCCC1)OCO3 (stereo unspecified) | 34.3 µM (inactive) |  | 42.2 µM (inactive) | 43.6 µM (inactive) | 44.6 µM (inactive) | 43.7 µM (inactive) |  |  | 55 µM (inactive) |  | 35.2 µM (inactive) | 45.1 µM (inactive) | 30.8 µM (inactive) | 29 µM (inactive) | 36.8 µM (inactive) | 16.7 µM (inactive) |  | 46.3 µM (inactive) |  | 66.4 µM (inactive)
CCCCCCCCCCCC(=O)OCC1OC(n2cc(F)c(=O)[nH]c2=O)C(NC(=O)OCc2ccccc2)C(O)C1O (stereo unspecified) | 20.8 µM (inactive) | 17.6 µM (inactive) | > 100 µM (inactive) |  |  | 25 µM (inactive) | 63.7 µM (inactive) | 23.8 µM (inactive) | 19.3 µM (inactive) | 20.6 µM (inactive) | 19.1 µM (inactive) | 24 µM (inactive) | 17.6 µM (inactive) | 14.5 µM (inactive) | 39.5 µM (inactive) | 32.6 µM (inactive) |  | 44.9 µM (inactive) | 27.2 µM (inactive) | 
Cc1cc(N(CCC#N)CCC#N)ccc1C(/N=N\c1ccc(C(=O)O)cc1)=N\NC(=O)c1cc(Cl)ccc1O | 42.2 µM (inactive) | 36 µM (inactive) | 24.7 µM (inactive) | 37.6 µM (inactive) | > 100 µM (inactive) | 56.2 µM (inactive) | 28.2 µM (inactive) | 29.2 µM (inactive) | 31.1 µM (inactive) |  | 62.8 µM (inactive) | 19.3 µM (inactive) | 59.8 µM (inactive) | 17.1 µM (inactive) | 19.2 µM (inactive) | 46.6 µM (inactive) | 26.6 µM (inactive) | 27 µM (inactive) | 25.4 µM (inactive) | 
O=C(Nc1ccccc1F)c1cc2ccc(O)cc2o/c1=N\c1cccc(C(F)(F)F)c1 | 3.18 µM (inactive) | 3.22 µM (inactive) | 2.08 µM (inactive) | 3.22 µM (inactive) | 3.51 µM (inactive) | 3.77 µM (inactive) | 3.78 µM (inactive) | 2.63 µM (inactive) | 3.81 µM (inactive) | 1.66 µM (inactive) | 3.31 µM (inactive) | 4.57 µM (inactive) | 1.92 µM (inactive) | 2 µM (inactive) | 2.82 µM (inactive) | 3.79 µM (inactive) |  | 7.91 µM (inactive) |  | 3.73 µM (inactive)
CN(C(=O)c1ccncc1)c1ccccc1 | > 100 µM (inactive) | > 100 µM (inactive) | > 100 µM (inactive) | > 100 µM (inactive) | > 100 µM (inactive) | > 100 µM (inactive) | > 100 µM (inactive) | > 100 µM (inactive) | > 100 µM (inactive) | > 100 µM (inactive) | > 100 µM (inactive) | > 100 µM (inactive) |  | > 100 µM (inactive) | > 100 µM (inactive) | > 100 µM (inactive) | > 100 µM (inactive) | > 100 µM (inactive) | > 100 µM (inactive) | 
COC(=O)[C@H](CCSC)NC(=O)c1ccc(CNC(=O)/C=C/c2cccc(Oc3ccccc3)c2)cc1 | 98.4 µM (inactive) | 60.5 µM (inactive) | 27.5 µM (inactive) | 43 µM (inactive) | 14.3 µM (inactive) | 23.3 µM (inactive) | > 100 µM (inactive) | 33.6 µM (inactive) | 18.2 µM (inactive) |  | 19.7 µM (inactive) | > 100 µM (inactive) | 33.1 µM (inactive) | 25.8 µM (inactive) | > 59.2 µM (inactive) | > 46.5 µM (inactive) | 21.3 µM (inactive) | > 100 µM (inactive) | 16.7 µM (inactive) | 
